Assay results: patent US8063072B2 (Roche Palo Alto LLC, priority 2009, dated 2011)
pIC50: −log10 of the molar value.

What was measured:
[1] = target: T1, HCV polymerase (NS5B570n-Con1) (Hepatitis C virus genotype 1b, UniProt Q9WMX2); assay: HCV NS5B RNA polymerase activity; assay type: biochemical, HCV Con1 strain
T1 construct: contains a 21 amino acid deletion at the C-terminus relative to the full-length HCV polymerase; 6-histidine (His6) (N); made in house; host or cells: E. coli BL21(DE) pLysS, plasmid pET17b
Method: The enzymatic activity of HCV polymerase (NS5B570n-Con1) was measured as the incorporation of radiolabeled nucleotide monophosphates into acid insoluble RNA products. Unincorporated radiolabeled substrate was removed by filtration and scintillant was added to the washed and dried filter plate containing radiolabeled RNA product. The amount of RNA product generated by NS5B570-Con1 at the end of the reaction was directly proportional to the amount of light emitted by the scintillant.
The N-terminal 6-histidine tagged HCV polymerase, derived from HCV Con1 strain, genotype 1b (NS5B570n-Con1) contains a 21 amino acid deletion at the C-terminus relative to the full-length HCV polymerase and was purified from E. coli strain BL21(DE) pLysS. The construct, containing the coding sequence of HCV NS5B Con1 (GenBank accession number AJ242654) was inserted into the plasmid construct pET17b, downstream of a T7 promoter expression cassette and transformed into E. coli. A single colony was grown overnight as a starter culture and later used inoculate 10 L of LB media supplemented with 100 μg/mL ampicillin at 37° C. Protein expression was induced by the addition of 0.25 mM isopropyl-β-D-thiogalactopyranoside (IPTG) when optical density at […] of the culture was between 0.6 and 0.8 and cells were harvested after 16 to 18 h at 30° C. NS5B570n-Con1 was purified to homogeneity using a three-step protocol including subsequent column chromatography on Ni-NTA, SP-Sepharose HP and Superdex 75 resins.
Each 50 μL enzymatic reaction contained 20 nM RNA template derived from the complementary sequence of the Internal Ribosome Entry Site (cIRES), 20 nM NS5B570n-Con1 enzyme, 0.5 μCi of tritiated UTP (Perkin Elmer catalog no. TRK-412; specific activity: 30 to 60 Ci/mmol; stock solution concentration from 7.5×10^-5 M to 20.6×10^-6 M), 1 μM each ATP, CTP, and GTP, 40 mM Tris-HCl pH 8.0, 40 mM NaCl, 4 mM DTT (dithiothreitol), 4 mM MgCl2, and 5 μl of compound serial diluted in DMSO. Reaction mixtures were assembled in 96-well filter plates (cat #MADVNOB, Millipore Co.) and incubated for 2 h at 30° C. Reactions were stopped by addition of 10% final (v/v) trichloroacetic acid and incubated for 40 min at 4° C. Reactions were filtered, washed with 8 reaction volumes of 10% (v/v) trichloroacetic acetic acid, 4 reaction volumes of 70% (v/v) ethanol, air dried, and 25 μl of scintillant (Microscint 20, Perkin-Elmer) was added to each reaction well.
The amount of light emitted from the scintillant was converted to counts per minute (CPM) on a Topcount® plate reader (Perkin-Elmer, Energy Range: Low, Efficiency Mode: Normal, Count Time: 1 min, Background Subtract: none, Cross talk reduction: Off).
Data was analyzed in Excel® (Microsoft) and ActivityBase® (Idbs®). The reaction in the absence of enzyme was used to determine the background signal, which was subtracted from the enzymatic reactions. Positive control reactions were performed in the absence of compound, from which the background corrected activity was set as 100% polymerase activity. All data was expressed as a percentage of the positive control. The compound concentration at which the enzyme-catalyzed rate of RNA synthesis was reduced by 50% (IC50) was calculated by fitting equation (i) to the data where“Y”
[formula] corresponds to the relative enzyme activity (in %), “% Min” is the residual relative activity at saturating compound concentration, “% Max” is the relative maximum enzymatic activity, “X” corresponds to the compound concentration, and “S” is the Hill coefficient (or slope).

[2] = tested on: genotype 1b replicon in HCV replicon cells (2209-23); assay: HCV replicon assay (Renilla luciferase reporter); assay type: cell-based, HCV genotype 1b; settings: Hepatitis C virus, 72 h; cell line 2209-23, three days incubation, luciferase readout
[3] = in vitro; settings: human
[4] = tested on: HCV; settings: cited from earlier work

Structure (SMILES) | pIC50 [1] | melting point [°C] | pIC50 [2] | CC50 [3] [µM] | effect on serum levels of HCV-RNA ([4]; monotherapy / sole treatment) | patients with serum amino transferase levels reduced to normal ([4]; monotherapy) [%]
COC(=O)c1cc(C(C)(C)C)nc(-c2ccc[nH]c2=O)c1C#N [Compound I-4, 6-tert-Butyl-3-cyano-2′-oxo-1′,2′-dihydro-[2,3′]bipyridinyl-4-carboxylic acid methyl ester] | 5.25 | 228 to 230 | – | – | – | –
CC(C)(C)c1cc(CCc2ccc(NS(C)(=O)=O)cc2)c(O)c(-c2ccc[nH]c2=O)n1 [Compound I-3, N-{4-[2-(6-tert-Butyl-3-hydroxy-2′-oxo-1′,2′-dihydro-[2,3′]bipyridinyl-4-yl)-ethyl]-phenyl}-methanesulfonamide] | 7.57 | 123 to 125 | 6.25 | – | – | –
CC(C)(C)c1nc(/C=C/c2ccc(NS(C)(=O)=O)cc2)cc(-c2ccc[nH]c2=O)n1 [Compound I-7, N-(4-{(E)-2-[2-tert-Butyl-6-(2-oxo-1,2-dihydro-pyridin-3-yl)-pyrimidin-4-yl]-vinyl}-phenyl)-methanesulfonamide] | 8.00 | 271 to 273 | – | – | – | –
CC(C)(C)c1cc(C(=O)N[C@H]2CC[C@H](NS(C)(=O)=O)CC2)c(C#N)c(-c2ccc[nH]c2=O)n1 [Compound I-5, 6-tert-Butyl-3-cyano-2′-oxo-1′,2′-dihydro-[2,3′]bipyridinyl-4-carboxylic acid (4-methanesulfonylamino-cyclohexyl)-amide] | 7.38 | 208 to 210 | – | – | – | –
CC(C)(C)c1cc(/C=C/c2ccc(NS(C)(=O)=O)cc2)cc(-c2ccc[nH]c2=O)n1 [Compound I-1] | 8.40 | 258 to 260 | 6.97 | 15.1 | – | –
CC(C)(C)c1cc(/C=C/c2ccc(NS(C)(=O)=O)cc2)c(O)c(-c2ccc[nH]c2=O)n1 [Compound I-2, N-{4-[(E)-2-(6-tert-Butyl-3-hydroxy-2′-oxo-1′,2′-dihydro-[2,3′]bipyridinyl-4-yl)-vinyl]-phenyl}-methanesulfonamide] | 6.75 | 178 to 180 | – | – | – | –
NC(=O)c1ncn([C@@H]2O[C@H](CO)[C@@H](O)[C@H]2O)n1 [ribavirin, 1-((2R,3R,4S,5R)-3,4-Dihydroxy-5-hydroxymethyl-tetrahydro-furan-2-yl)-1H-[1,2,4]triazole-3-carboxylic acid amide] | – | – | – | – | does not lower serum levels of HCV-RNA | 40
CC(C)(C)c1cc(CCc2ccc(NS(C)(=O)=O)cc2)c(C#N)c(-c2ccc[nH]c2=O)n1 [Compound I-6, N-{4-[2-(6-tert-Butyl-3-cyano-2′-oxo-1′,2′-dihydro-[2,3′]bipyridinyl-4-yl)-ethyl]-phenyl}-methanesulfonamide] | 8.40 | – | – | – | – | –
